# Measurements as given in ChEMBL document CHEMBL1201862, “PubChem BioAssay data set” (2004).
#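 A five-concentration, 48-hour dose response in 96-well plates underlies each endpoint, interpolated linearly between surrounding concentrations. At the GI50, growth is halved.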 The source made the active and inactive calls. Rule as the data show it: active = GI50 up to about 1.1 µM and inactive = higher.
# Tests used:
# Assay in all cases: NCI-60 cell line screen, 48 h
# SF-268 = test system: SF-268
# SK-OV-3 = test system: SK-OV-3
# RXF 393 = test system: RXF 393
# SF-539 = test system: SF-539
# HCT-116 = test system: HCT-116
# DLD-1 = test system: DLD-1
# OVCAR-3 = test system: OVCAR-3
# CCRF-CEM = test system: CCRF-CEM
# MOLT-4 = test system: MOLT-4
# UACC-257 = test system: UACC-257
# SNB-19 = test system: SNB-19
# K562 = test system: K562
# HCC 2998 = test system: HCC 2998
# U-251 = test system: U-251
# EKVX = test system: EKVX
# OVCAR-5 = test system: OVCAR-5
# IGROV-1 = test system: IGROV-1
# NCI-H522 = test system: NCI-H522
# SK-MEL-5 = test system: SK-MEL-5
# HOP-92 = test system: HOP-92
# OVCAR-4 = test system: OVCAR-4
# Malme-3M = test system: Malme-3M
# NCI/ADR-RES = test system: NCI/ADR-RES
# SW-620 = test system: SW-620
# XF498 = test system: XF498
# HOP-62 = test system: HOP-62
# MCF7 = test system: MCF7
# NCI-H226 = test system: NCI-H226
# SN12C = test system: SN12C
# HOP-18 = test system: HOP-18
# KM12 = test system: KM12
# UO-31 = test system: UO-31
# SNB-75 = test system: SNB-75
# SK-MEL-2 = test system: SK-MEL-2
# NCI-H460 = test system: NCI-H460
# HCT-15 = test system: HCT-15
# SK-MEL-28 = test system: SK-MEL-28
# COLO 205 = test system: COLO 205
# A498 = test system: A498
# A549 = test system: A549
# NCI-H23 = test system: NCI-H23
# UACC-62 = test system: UACC-62
# OVCAR-8 = test system: OVCAR-8
# LOX IMVI = test system: LOX IMVI
# HL-60 = test system: HL-60
# HT-29 = test system: HT-29
# DMS-273 = test system: DMS-273
# KM-20L2 = test system: KM-20L2
# SF-295 = test system: SF-295
# DMS-114 = test system: DMS-114
# SNB-78 = test system: SNB-78
# CAKI-1 = test system: CAKI-1
smiles,measurement,setting,value
c1ccc2c(c1)OCCc1cn[nH]c1-2,GI50,SF-268,> 100 µM (inactive)
same,GI50,SK-OV-3,> 100 µM (inactive)
same,GI50,RXF 393,> 69.2 µM (inactive)
same,GI50,SF-539,> 100 µM (inactive)
same,GI50,HCT-116,> 100 µM (inactive)
same,GI50,DLD-1,> 100 µM (inactive)
same,GI50,OVCAR-3,> 100 µM (inactive)
same,GI50,CCRF-CEM,> 100 µM (inactive)
same,GI50,MOLT-4,> 100 µM (inactive)
same,GI50,UACC-257,> 100 µM (inactive)
same,GI50,SNB-19,> 100 µM (inactive)
same,GI50,K562,> 100 µM (inactive)
same,GI50,HCC 2998,> 100 µM (inactive)
same,GI50,U-251,> 100 µM (inactive)
same,GI50,EKVX,80.5 µM (inactive)
same,GI50,OVCAR-5,> 100 µM (inactive)
same,GI50,IGROV-1,> 100 µM (inactive)
same,GI50,NCI-H522,> 100 µM (inactive)
same,GI50,SK-MEL-5,> 100 µM (inactive)
same,GI50,HOP-92,> 42.3 µM (inactive)
same,GI50,OVCAR-4,> 100 µM (inactive)
same,GI50,Malme-3M,> 100 µM (inactive)
same,GI50,NCI/ADR-RES,> 100 µM (inactive)
same,GI50,SW-620,> 100 µM (inactive)
same,GI50,XF498,52.2 µM (inactive)
same,GI50,HOP-62,> 61.7 µM (inactive)
same,GI50,MCF7,> 100 µM (inactive)
same,GI50,NCI-H226,22.2 µM (inactive)
same,GI50,SN12C,> 79.3 µM (inactive)
same,GI50,HOP-18,> 43.5 µM (inactive)
same,GI50,KM12,> 100 µM (inactive)
same,GI50,UO-31,> 100 µM (inactive)
same,GI50,SNB-75,42 µM (inactive)
same,GI50,SK-MEL-2,> 100 µM (inactive)
same,GI50,NCI-H460,> 100 µM (inactive)
same,GI50,HCT-15,> 100 µM
same,GI50,SK-MEL-28,> 100 µM (inactive)
same,GI50,COLO 205,> 100 µM (inactive)
same,GI50,A498,> 93.5 µM (inactive)
same,GI50,A549,> 100 µM (inactive)
same,GI50,NCI-H23,> 100 µM (inactive)
same,GI50,UACC-62,66.7 µM (inactive)
same,GI50,OVCAR-8,> 100 µM (inactive)
same,GI50,LOX IMVI,> 100 µM (inactive)
same,GI50,HL-60,60.3 µM (inactive)
same,GI50,HT-29,> 100 µM (inactive)
same,GI50,DMS-273,> 100 µM (inactive)
same,GI50,KM-20L2,> 100 µM (inactive)
same,GI50,SF-295,> 100 µM (inactive)
same,GI50,DMS-114,99.1 µM (inactive)
same,GI50,SNB-78,> 100 µM (inactive)
same,GI50,CAKI-1,0.452 µM (active)
